Among the data in the Kinase Knowledgebase extract (Sharma et al. 2016) are IC50 values, retold here.

Each structure is given as a SMILES string.

In the assay the target is EGFR (UniProt P00533).
EGFR, sequence (P00533 whole entry, looked up): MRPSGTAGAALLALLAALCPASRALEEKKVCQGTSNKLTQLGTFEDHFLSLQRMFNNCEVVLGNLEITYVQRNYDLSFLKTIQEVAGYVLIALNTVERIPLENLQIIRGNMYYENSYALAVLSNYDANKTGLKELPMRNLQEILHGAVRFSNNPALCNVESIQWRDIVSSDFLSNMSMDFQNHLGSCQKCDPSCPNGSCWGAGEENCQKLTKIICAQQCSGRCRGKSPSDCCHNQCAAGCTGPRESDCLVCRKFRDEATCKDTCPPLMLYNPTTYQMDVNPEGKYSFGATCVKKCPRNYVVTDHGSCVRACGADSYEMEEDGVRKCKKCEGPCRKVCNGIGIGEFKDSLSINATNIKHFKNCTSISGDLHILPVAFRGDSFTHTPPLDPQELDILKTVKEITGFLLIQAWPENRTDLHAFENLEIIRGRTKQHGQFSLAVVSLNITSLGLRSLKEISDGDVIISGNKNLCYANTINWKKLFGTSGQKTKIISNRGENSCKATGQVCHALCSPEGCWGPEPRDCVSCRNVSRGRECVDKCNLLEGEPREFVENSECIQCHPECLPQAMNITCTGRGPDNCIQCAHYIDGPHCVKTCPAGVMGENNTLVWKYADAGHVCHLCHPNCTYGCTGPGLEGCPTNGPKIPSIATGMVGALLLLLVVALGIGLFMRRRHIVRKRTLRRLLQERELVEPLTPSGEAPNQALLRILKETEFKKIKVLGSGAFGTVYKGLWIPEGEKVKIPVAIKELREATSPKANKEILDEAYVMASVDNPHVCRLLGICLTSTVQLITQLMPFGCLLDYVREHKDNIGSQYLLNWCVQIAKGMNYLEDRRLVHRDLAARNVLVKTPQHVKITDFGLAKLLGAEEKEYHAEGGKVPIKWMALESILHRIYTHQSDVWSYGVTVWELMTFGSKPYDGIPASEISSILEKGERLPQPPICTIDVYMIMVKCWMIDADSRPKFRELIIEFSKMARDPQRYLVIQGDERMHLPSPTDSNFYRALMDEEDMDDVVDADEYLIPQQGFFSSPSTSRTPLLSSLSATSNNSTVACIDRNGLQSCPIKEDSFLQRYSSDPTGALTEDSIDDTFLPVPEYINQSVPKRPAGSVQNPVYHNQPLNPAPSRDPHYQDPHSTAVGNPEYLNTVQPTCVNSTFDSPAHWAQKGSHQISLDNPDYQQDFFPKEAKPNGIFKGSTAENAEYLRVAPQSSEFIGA
`CCN1CCC(Nc2ccc3c(c2)/C(=C(\c2cccc([N+](=O)[O-])c2)c2nc4ccccc4[nH]2)C(=O)N3)CC1` returned an IC50 of 500 to 5000 nM.
Take `CS(=O)(=O)N1CCC(Nc2ccc3c(c2)/C(=C(\c2ccccc2)c2nc4ccccc4[nH]2)C(=O)N3)CC1`: the concentration for half-maximal inhibition (IC50) lay in the range of 500 to 5000 nM.
Regarding `CCN1CCC(Nc2ccc3c(c2)/C(=C(\c2ccc(F)c(Cl)c2)c2ncc[nH]2)C(=O)N3)CC1`, the 50% inhibitory concentration (IC50) fell in the range of 500 to 5000 nM.
Compound `CCN1CCC(Nc2ccc3c(c2)/C(=C(\c2ccc(C(F)(F)F)nc2)c2ncc[nH]2)C(=O)N3)CC1` registered an IC50 greater than 5000 nM.
For `CCN1CCC(Nc2ccc3c(c2)/C(=C(\c2ccccc2)c2nc(CCN4C(=O)c5ccccc5C4=O)c[nH]2)C(=O)N3)CC1`, the IC50 lay in the range of 500 to 5000 nM.
With `CCN1CCC(Nc2ccc3c(c2)/C(=C(/c2ncc[nH]2)c2ccc(F)cc2F)C(=O)N3)CC1`, the IC50 fell in the range of 50 to 500 nM.
The figure for `CCN1CCC(Nc2ccc3c(c2)/C(=C(/c2nc(C)c[nH]2)c2ccc(Cl)cc2F)C(=O)N3)CC1` is less than 50 nM; for `CCN1CCC(Nc2ccc3c(c2)/C(=C(\c2cccc(F)c2)c2ncn[nH]2)C(=O)N3)CC1` it is greater than 5000 nM; for `COCCN1CCC(Nc2ccc3c(c2)/C(=C(\c2ccc(C)c(F)c2)c2nc(C)c[nH]2)C(=O)N3)CC1` it is less than 50 nM.
With `CCOC(=O)c1[nH]c(/C(=C2\C(=O)Nc3ccc(NC4CCN(CCOC)CC4)cc32)c2cccc(F)c2)nc1C`, the IC50 was greater than 5000 nM.
Then `CCN1CCC(Nc2ccc3c(c2)/C(=C(/c2cc(F)cc(F)c2)c2nc4cc(F)ccc4[nH]2)C(=O)N3)CC1`, with greater than 5000 nM; and `COCCN1CCC(Nc2ccc3c(c2)/C(=C(\c2ccccc2)c2nc4cc(Cl)ccc4[nH]2)C(=O)N3)CC1`, with greater than 5000 nM.
Take `COCCN1CCC(Nc2ccc3c(c2)/C(=C(\c2cccc(Cl)c2)c2nc4ccccc4[nH]2)C(=O)N3)CC1`: the IC50 lay in the range of 500 to 5000 nM.
Take `O=C1Nc2ccc(OC3CCN(Cc4ccccc4)CC3)cc2/C1=C(\c1ccccc1)c1nc2ccccc2[nH]1`: the IC50 was 500 to 5000 nM.
For the compound `CCN1CCC(Nc2ccc3c(c2)/C(=C(\c2ccc(C(F)(F)F)cc2)c2ncc[nH]2)C(=O)N3)CC1`, the IC50 is 500 to 5000 nM.
Then `O=C1Nc2ccc(NC3CC4CCC(C3)N4)cc2/C1=C(\c1ccccc1)c1nc2ccccc2[nH]1` (stereo not given), with 500 to 5000 nM; and `CCN1CCC(Nc2ccc3c(c2)/C(=C(\c2ccc(C(F)(F)F)c(F)c2)c2nc(C)c[nH]2)C(=O)N3)CC1`, with less than 50 nM; and `COCCN1CCC(Nc2ccc3c(c2)/C(=C(\c2ccccc2)c2ncc[nH]2)C(=O)N3)CC1`, with greater than 5000 nM.
On to `COCCN1CCC(Nc2ccc3c(c2)/C(=C(\c2cc(F)cc(F)c2)c2ncc[nH]2)C(=O)N3)CC1`, for which the IC50 lay within 50 to 500 nM.
In turn, `COCCN1CCC(Nc2ccc3c(c2)/C(=C(\c2ccc(C(F)(F)F)cc2)c2ncc[nH]2)C(=O)N3)CC1` displayed an IC50 greater than 5000 nM.
`COCCN1CCC(Nc2ccc3c(c2)/C(=C(\c2ccc(C)c(F)c2)c2ncc[nH]2)C(=O)N3)CC1` came in with an IC50 of 50 to 500 nM.
Regarding `COCCN1CCC(Nc2ccc3c(c2)/C(=C(\c2cc(F)cc(F)c2)c2nc(C)c[nH]2)C(=O)N3)CC1`, the IC50 lay within 50 to 500 nM.
`COCCN1CCC(Nc2ccc3c(c2)/C(=C(\c2cccc(F)c2)c2ncn[nH]2)C(=O)N3)CC1` showed an IC50 greater than 5000 nM.
For `CCN1CCC(Nc2ccc3c(c2)/C(=C(\c2ccc(F)c(Cl)c2)c2nc(C)c[nH]2)C(=O)N3)CC1`, the IC50 was in the range of 50 to 500 nM.
Compound `O=C1Nc2ccc(NC3CCN(CCN4CCCC4)CC3)cc2/C1=C(\c1cccc(F)c1)c1ncc[nH]1` registered an IC50 greater than 5000 nM.
The figure for `COCCN1CCC(Nc2ccc3c(c2)/C(=C(\c2ccc(Cl)cc2)c2ncc[nH]2)C(=O)N3)CC1` is greater than 5000 nM; for `CCN1CCC(Nc2ccc3c(c2)/C(=C(\c2cc(F)cc(F)c2)c2ncc[nH]2)C(=O)N3)CC1` it is 50 to 500 nM.
For the compound `CCN1CCC(Nc2ccc3c(c2)/C(=C(\c2ccc([N+](=O)[O-])cc2)c2nc4ccccc4[nH]2)C(=O)N3)CC1`, the half-maximal inhibitory concentration (IC50) was 500 to 5000 nM.
Compound `COCCN1CCC(Nc2ccc3c(c2)/C(=C(\c2ccc(C(F)(F)F)c(F)c2)c2ncc[nH]2)C(=O)N3)CC1` registered an IC50 greater than 5000 nM.
In the case of `CCN1CCC(Nc2ccc3c(c2)/C(=C(/c2nc(C)c[nH]2)c2cc(F)c(Cl)cc2Cl)C(=O)N3)CC1`, the IC50 was in the range of 50 to 500 nM.
With `CCN1CCC(Nc2ccc3c(c2)/C(=C(/c2ncc[nH]2)c2ccc(C(F)(F)F)cc2F)C(=O)N3)CC1`, the IC50 lay in the range of 50 to 500 nM.
The compound `CCN1CCC(N(C)c2ccc3c(c2)/C(=C(\c2cccc(Cl)c2)c2nc4ccccc4[nH]2)C(=O)N3)CC1` showed an IC50 of 500 to 5000 nM.
Then `CCN1CCC(Nc2ccc3c(c2)/C(=C(\c2ccc(C)c(F)c2)c2nc(C)c[nH]2)C(=O)N3)CC1`, with less than 50 nM.
Turning to `CCN1CCC(Nc2ccc3c(c2)/C(=C(\c2ccc(F)cc2)c2nc4ccccc4[nH]2)C(=O)N3)CC1`, the IC50 was 500 to 5000 nM.
Then `CCN1CCC(Nc2ccc3c(c2)/C(=C(\c2cccc(C(F)(F)F)c2)c2ncc[nH]2)C(=O)N3)CC1`, with 500 to 5000 nM; and `CCN1CCC(Nc2ccc3c(c2)/C(=C(\c2ccc(F)cc2)c2nc(C)c[nH]2)C(=O)N3)CC1`, with 50 to 500 nM.
`O=C1Nc2ccc(NC3CCN(CCN4CCOCC4)CC3)cc2/C1=C(\c1cccc(F)c1)c1ncc[nH]1` displayed an IC50 greater than 5000 nM.
On to `CCN1CCC(Nc2ccc3c(c2)/C(=C(\c2ccc(C(F)(F)F)cc2)c2nc(C)c[nH]2)C(=O)N3)CC1`, for which the IC50 was 50 to 500 nM.
On to `CCN1CCC(Nc2ccc3c(c2)/C(=C(\c2ccc(N)cc2)c2nc4ccccc4[nH]2)C(=O)N3)CC1`, for which the IC50 fell in the range of 50 to 500 nM.
Compound `CCN1CCC(Nc2ccc3c(c2)/C(=C(/c2ncc[nH]2)c2cccc(F)c2F)C(=O)N3)CC1` returned an IC50 of 50 to 500 nM.
On to `CCN1CCC(Nc2ccc3c(c2)/C(=C(\c2cccc(F)c2)c2nc(-c4ccccc4)c[nH]2)C(=O)N3)CC1`, for which the IC50 lay within 50 to 500 nM.
In turn, `COCCN1CCC(Nc2ccc3c(c2)/C(=C(\c2cccc(F)c2)c2nc(C)c[nH]2)C(=O)N3)CC1` returned an IC50 of 50 to 500 nM.
For `COCCN1CCC(Nc2ccc3c(c2)/C(=C(\c2ccc(C)cc2)c2nc(C)c[nH]2)C(=O)N3)CC1`, the 50% inhibitory concentration (IC50) was in the range of 50 to 500 nM.
The figure for `CCN1CCC(Nc2ccc3c(c2)/C(=C(\c2cccc(OC)c2)c2nc4ccccc4[nH]2)C(=O)N3)CC1` is 50 to 500 nM.
In turn, `CCN1CCC(Nc2ccc3c(c2)/C(=C(\c2cccc(C(F)(F)F)c2)c2nc(C)c[nH]2)C(=O)N3)CC1` had an IC50 of 500 to 5000 nM.
`COCCN1CCC(Nc2ccc3c(c2)/C(=C(\c2ccc(OC)cc2)c2ncc[nH]2)C(=O)N3)CC1` yielded an IC50 greater than 5000 nM.
Compound `CCN1CCC(Nc2ccc3c(c2)/C(=C(\c2cc(F)cc(F)c2)c2nc(C)c[nH]2)C(=O)N3)CC1` returned an IC50 of 50 to 500 nM.
For `O=C1Nc2ccc(NC3CCNCC3)cc2/C1=C(\c1cccc(F)c1)c1ncc[nH]1`, the IC50 is greater than 5000 nM.
On to `CCN1CCC(Nc2ccc3c(c2)/C(=C(\c2cccc(C(=N)N)c2)c2nc4ccccc4[nH]2)C(=O)N3)CC1`, for which the IC50 lay within 500 to 5000 nM.
`CC1(C)CC(Nc2ccc3c(c2)/C(=C(\c2ccccc2)c2nc4ccccc4[nH]2)C(=O)N3)CC(C)(C)N1` gave an IC50 of 500 to 5000 nM.

By IC50 is commonly meant the concentration needed to halve the response being measured.
